We go through seven compounds from PubChem BioAssay (NCI).

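Results reflect a 48-hour exposure of cells in 96-well plates to compound at five concentrations. GI50: concentration for 50% inhibition of growth. At the TGI there is no net growth.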

Among the test systems are COLO 205 colon; HCT-15 colon; KM12 colon; UACC-257 melanoma; LOX IMVI melanoma; DU-145 prostate; OVCAR-4 ovarian; SW-620 colon; CAKI-1 renal; SK-MEL-5 melanoma.
Test in all cases: NCI tumour cell line growth inhibition, 48 h

Consider `COc1ccc(C(=O)c2cc(C)c(OC)c(C)c2)c(OC)c1O`, for which the GI50 in the assay on COLO 205 colon was 7.77 µM; with HCT-15 colon, 0.0214 µM; in the assay on KM12 colon, less than 0.017 µM; in the assay on UACC-257 melanoma, 32.9 µM; with LOX IMVI melanoma it was 0.0381 µM; with DU-145 prostate, 0.0369 µM. Besides, the GI50 with OVCAR-4 ovarian was 0.415 µM; in the assay on SW-620 colon, 0.0366 µM; in the assay with CAKI-1 renal it was 0.185 µM; with SK-MEL-5 melanoma, 0.0552 µM. The TGI with COLO 205 colon was 28.4 µM; with HCT-15 colon, more than 100 µM; with KM12 colon it was more than 100 µM; in the assay on UACC-257 melanoma, more than 100 µM; with LOX IMVI melanoma, more than 100 µM; in the assay with DU-145 prostate, more than 100 µM. For the same compound, the TGI in the assay with OVCAR-4 ovarian is more than 100 µM; with SW-620 colon, more than 100 µM; with CAKI-1 renal, more than 100 µM; with SK-MEL-5 melanoma, 0.292 µM.
On to `COc1ccc(-c2[nH]c3ccc(OC)cc3c2/C=C(\C#N)S(=O)(=O)c2ccccc2)cc1`, for which the GI50 in the assay on COLO 205 colon is 0.396 µM; with HCT-15 colon, 0.614 µM; with KM12 colon, 0.653 µM; in the assay with UACC-257 melanoma, 7.06 µM; with LOX IMVI melanoma it was 1.15 µM; in the assay with DU-145 prostate it was 0.785 µM. The GI50 is 2.09 µM in the assay with OVCAR-4 ovarian, 0.534 µM in the assay with SW-620 colon, 4.22 µM in the assay on CAKI-1 renal and 0.319 µM in the assay with SK-MEL-5 melanoma. Further, the TGI in the assay on COLO 205 colon is 1.83 µM; in the assay with HCT-15 colon, more than 100 µM; with KM12 colon, 7.69 µM; in the assay on UACC-257 melanoma it was more than 46.5 µM; in the assay with LOX IMVI melanoma, more than 100 µM; in the assay on DU-145 prostate, more than 31.4 µM. Also, the TGI in the assay on OVCAR-4 ovarian is more than 100 µM; in the assay on SW-620 colon, more than 100 µM; in the assay on CAKI-1 renal, more than 100 µM; with SK-MEL-5 melanoma, 2.39 µM.
Consider `CCCCC(CC)COC(=O)C[N+](C)(C)CCOC(c1ccccc1)c1ccccc1` (stereo not drawn), for which the GI50 in the assay with COLO 205 colon is 1.93 µM; in the assay on HCT-15 colon, 13.8 µM; in the assay on KM12 colon, 1.78 µM; in the assay with UACC-257 melanoma, 2.56 µM; with LOX IMVI melanoma, 1.66 µM; with DU-145 prostate, 5.53 µM. Moreover, the GI50 with OVCAR-4 ovarian is 2.4 µM; in the assay with SW-620 colon, 1.97 µM; with CAKI-1 renal, 16.8 µM; with SK-MEL-5 melanoma, 1.73 µM. Also, the TGI is 4.12 µM in the assay on COLO 205 colon; 31.2 µM with HCT-15 colon; 3.44 µM in the assay on KM12 colon; 7.6 µM in the assay with UACC-257 melanoma; 3.02 µM with LOX IMVI melanoma; 18 µM with DU-145 prostate. The TGI with OVCAR-4 ovarian is 6.99 µM; in the assay on SW-620 colon it was 4.3 µM; with CAKI-1 renal it was 31.9 µM; in the assay with SK-MEL-5 melanoma, 3.1 µM.
For the compound `CN1CCN(CCCNc2nc3ccc(Oc4ccc(NC(=O)Nc5cc(C(F)(F)F)ccc5F)cc4)cc3[nH]2)CC1`, the GI50 in the assay with COLO 205 colon was 4.5 µM; in the assay on HCT-15 colon it was more than 25 µM; in the assay on KM12 colon it was 3.44 µM; in the assay on UACC-257 melanoma it was 4.02 µM; in the assay with LOX IMVI melanoma it was 4.25 µM; in the assay with DU-145 prostate it was 5.17 µM. Also, the GI50 in the assay on OVCAR-4 ovarian is 5.88 µM; with SW-620 colon, 4.35 µM; in the assay on CAKI-1 renal it was more than 25 µM; with SK-MEL-5 melanoma it was 3.66 µM. The TGI is 7.97 µM with COLO 205 colon; more than 25 µM in the assay on HCT-15 colon; 6.74 µM with KM12 colon; 7.93 µM in the assay on UACC-257 melanoma; 7.91 µM with LOX IMVI melanoma; 12.5 µM with DU-145 prostate. In addition, the TGI in the assay with OVCAR-4 ovarian was more than 19.5 µM; with SW-620 colon, 7.79 µM; in the assay on CAKI-1 renal, more than 25 µM; with SK-MEL-5 melanoma, 7.01 µM.
`C=C1C(=O)O[C@H]2[C@H]1CC/C(COC(=O)NCCCCNC(=O)OC/C1=C/CC[C@@]3(C)O[C@H]3[C@H]3OC(=O)C(=C)[C@@H]3CC1)=C\CC[C@@]1(C)O[C@@H]21`: the GI50 is 0.466 µM in the assay on COLO 205 colon; 5.61 µM in the assay on HCT-15 colon; 3.18 µM in the assay with KM12 colon; 1.68 µM in the assay on UACC-257 melanoma; 0.519 µM with LOX IMVI melanoma; 3.21 µM in the assay on DU-145 prostate. Further, the GI50 was 1.77 µM in the assay on OVCAR-4 ovarian, 0.586 µM in the assay with SW-620 colon, 10.8 µM in the assay on CAKI-1 renal and 3.33 µM in the assay on SK-MEL-5 melanoma. The TGI in the assay on COLO 205 colon worked out at 1.8 µM; with HCT-15 colon it was 20.8 µM; in the assay with KM12 colon, 10.5 µM; in the assay with UACC-257 melanoma, 4.99 µM; in the assay with LOX IMVI melanoma it was 1.92 µM; in the assay on DU-145 prostate, 10.5 µM. The TGI in the assay with OVCAR-4 ovarian is 8.53 µM; in the assay on SW-620 colon, 2.04 µM; in the assay with CAKI-1 renal it was 23 µM; with SK-MEL-5 melanoma, 11.8 µM.
Consider `COC(=O)Nc1nc2ccc(C3(c4ccc(F)cc4)OCCO3)cc2[nH]1`, for which the GI50 in the assay with COLO 205 colon is 0.297 µM; with HCT-15 colon, 0.178 µM; in the assay with KM12 colon, 0.352 µM; in the assay with UACC-257 melanoma, 1.28 µM; in the assay with LOX IMVI melanoma it was 0.732 µM; in the assay on DU-145 prostate, 0.363 µM. For the same compound, the GI50 was 7.16 µM in the assay on OVCAR-4 ovarian, 0.311 µM with SW-620 colon, 0.462 µM in the assay with CAKI-1 renal and 0.267 µM in the assay with SK-MEL-5 melanoma. The TGI with COLO 205 colon is 2.88 µM; with HCT-15 colon, more than 100 µM; in the assay on KM12 colon, more than 100 µM; with UACC-257 melanoma it was more than 100 µM; in the assay with LOX IMVI melanoma it was more than 100 µM; in the assay with DU-145 prostate, more than 100 µM. Further, the TGI with OVCAR-4 ovarian is more than 100 µM; in the assay on SW-620 colon it was more than 100 µM; with CAKI-1 renal it was more than 100 µM; with SK-MEL-5 melanoma, 17.4 µM.
On to `S=c1ssc(N2CCOCC2)c1Cl`, for which the GI50 is more than 100 µM with COLO 205 colon; 23.6 µM in the assay with HCT-15 colon; 31 µM in the assay on KM12 colon; more than 100 µM in the assay with UACC-257 melanoma; 17.7 µM with LOX IMVI melanoma; 20.3 µM in the assay with DU-145 prostate. The figures for the GI50 in the assay with OVCAR-4 ovarian, in the assay with CAKI-1 renal and in the assay with SK-MEL-5 melanoma were more than 100 µM, more than 100 µM and 16.5 µM, respectively. Also, the TGI in the assay with COLO 205 colon was more than 100 µM; in the assay with HCT-15 colon it was more than 100 µM; in the assay on KM12 colon, more than 100 µM; with UACC-257 melanoma it was more than 100 µM; in the assay on LOX IMVI melanoma, 37.8 µM; in the assay with DU-145 prostate, 56.5 µM. Further, the values for the TGI with OVCAR-4 ovarian, in the assay with CAKI-1 renal and in the assay with SK-MEL-5 melanoma were more than 100 µM, more than 100 µM and 30 µM, respectively.
